Assay results as given in publication PMC12210912, “Pharmacologic properties and inhibitory activity of 6-azasteroids against Mycobacterium leprae in vivo and in vitro” (Microbiology Spectrum, 2025).
pIC50: −log10 of the molar value.

Experiments:
M. leprae 3β-HSD [1] = tested on: M. leprae 3β-HSD; parameters: method as in PMID 34395315; settings: cited from earlier work
M. leprae 3β-HSD [2] = experiment: cholestenone production by M. leprae in axenic medium (TLC); assay type: cell-based; settings: Mycobacterium leprae, TLC densitometry, σ printed in brackets
M. leprae 3β-HSD [3] = experiment: NAD+ reduction by M. leprae whole cell lysate; assay type: biochemical, Mycobacterium leprae; settings: M. leprae WCL with 200 µM cholesterol, vehicle DMSO mean 1.119
Procedure: M. leprae whole cell lysate (WCL) was obtained by bead-beating gamma-irradiated M. leprae Strain NHDP (BEI Resources, NR-19326) with 0.1 mm silica beads and FastPrep bead-beater (MP Biomedicals, USA). Homogenization was carried out in three cycles of agitation at 6.5 m/s for 45 s, with the sample being rested on ice for at least 2 min between cycles. The homogenates were centrifuged at 14,000 × g for 5 min to separate the spheres and WCL. The supernatant was recovered, and protein concentration determined using Pierce BCA protein assay (Thermo Fisher Scientific). NAD^+ (200 µM, MilliporeSigma, USA) reduction was measured as previously described using 50 µg (protein) of WCL protein, with the addition of 200 µM of cholesterol (MilliporeSigma) and in the presence or absence of compound 2 (40 and 100 µM) or compound 5 (100 µM) ([10]).

[4] = compound plasma concentration in Balb/c mice by LC-MS; assay type: in vivo; settings: 50 mg/kg; for plasma level at the end of the experiment with infected mice: Balb/c mice, 6 h after last dose, alone or with rifampicin
Procedure: Animal experimentation was conducted under approval by the ILSL ethical committee (CEUA ILSL 02/19). Balb/c female mice with 8-week-old were inoculated with 5 × 10^3 live M. leprae bacilli, strain Thai-53, in both hind footpads, as previously described for the Shepard’s model ([25]). Eight groups were tested in the experiment: (i) M. leprae control group (n = 5) inoculated with M. leprae and no additional treatment; (ii) vehicle control group (n = 4) inoculated with M. leprae and treatment with vehicle of the drugs; (iii) regular rifampicin treatment, 10 mg/Kg dose; (iv) sub-inhibitory rifampicin, 1 mg/kg dose (n = 5); (v) compound 2 treatment (n = 4), 50 mg/kg dose; (vi) compound 2 with sub-inhibitory rifampicin (n = 5), 50 mg/kg dose of compound 2 and 1 mg/kg dose of rifampicin; (vii) compound 5 treatment (n = 5), 50 mg/kg dose; and (viii) compound 5 with sub-inhibitory rifampicin (n = 5), 50 mg/kg dose of compound 5 and 1 mg/kg dose of rifampicin. One month after inoculation, mice from the control group were euthanized and the hind footpad was collected to assess the establishment of the infection by bacillary enumeration. At that time point, vehicle or drug treatment was started for the remaining groups. All compounds were administrated by gavage, rifampicin was administered weekly, and the compounds were administered daily (excluding weekends) for 1 month (20 doses). Mice were euthanized 6 h after administration of the last dose, and blood was collected in heparin-coated tubes by cardiac puncture for blood enzyme evaluation and compound 5 measurement by LC/MS in the plasma. The infected hind footpads from each group of mice were excised, homogenized and bacilli enumerated in a 100 µL aliquot as previously described ([26]). […]
Uninfected Balb/c female mice (n = 36), approximately 8 weeks old and 20 g, were divided into three groups. […] Concentrations of compound 5 in plasma were determined by LC/MS.
Compound 5 quantification in the plasma was performed on lipid extracts from plasma samples. […]

HepG2 cells = settings: cited from earlier work
[5] = tested on: human type 2 5α-reductase; parameters: method as in PMID 8057283; settings: cited from earlier work

| SMILES | M. leprae 3β-HSD activity (cholestenone production in axenic medium) (M. leprae 3β-HSD [1]) | inhibition at 40 µM (M. leprae 3β-HSD [2]; 40 μM) [%] | rate of NAD+ reduction, mean value (ratio absorbance T/absorbance T0) (M. leprae 3β-HSD [3]; 40 µM) | rate of NAD+ reduction, mean value (ratio absorbance T/absorbance T0) (M. leprae 3β-HSD [3]; 100 µM) | plasma level at the end of the experiment with infected mice [4] | pIC50 (HepG2 cells) | inhibition at 100 µM (M. leprae 3β-HSD [2]; 100 μM) [%] | plasma levels over 4 weeks, alone vs in combination with rifampicin ([4]; non-infected Balb/c mice, rifampicin 1 mg/kg, weekly time points) | inhibition of human type 2 5α-reductase [5] |
| --- | --- | --- | --- | --- | --- | --- | --- | --- | --- |
| CC(C)(C)c1ccc(C(C)(C)C)c(NC(=O)C2CCC3C4CNC5=CC(=O)CC[C@]5(C)C4CC[C@]23C)c1 (stereo partly drawn) [Compound 1] | inhibits M. leprae 3β-HSD activity |  |  |  |  |  |  |  |  |
| CCCN1CC2C3CCC(C(=O)Nc4cc(C(C)(C)C)ccc4C(C)(C)C)[C@@]3(C)CCC2[C@@]2(C)CCC(=O)C=C12 (stereo partly drawn) [Compound 2] |  | ~38 | 0.9986 | 1.038 | detectable levels | 4.68 |  |  |  |
| C[C@]12CCC3C(CNC4=CC(=O)CC[C@@]43C)C1CCC2C(=O)NC(c1ccc(F)cc1)c1ccc(F)cc1 (stereo partly drawn) [Compound 5] |  |  |  | 0.9070 | detectable levels | 4.51 | ~25.1 | no significant differences | nanomolar inhibitor |
